Assay results reported in the supplement of paper PMC8967900.

Experiments:
Test in all cases: selective drug sensitivity score (sDSS, relative to normal bone marrow) (sDSS (score)); higher = more potent and effective on the cell line relative to normal bone marrow cells
Conditions in all cases: 72 h
ALL-PO = tested on: ALL-PO
CCRF-HSB2 = tested on: CCRF-HSB2
COG-LL-319h = tested on: COG-LL-319h
COG-LL-332h = tested on: COG-LL-332h
COG-LL-355h = tested on: COG-LL-355h
DND-41 = tested on: DND-41
HAL-01 = tested on: HAL-01
KARPAS-45 = tested on: KARPAS-45
MHH-CALL-2 = tested on: MHH-CALL-2
MN-60 = tested on: MN-60
MOLT-14 = tested on: MOLT-14
MOLT-16 = tested on: MOLT-16
P12-ICHIKAWA = tested on: P12-ICHIKAWA
P30-OHKUBO = tested on: P30-OHKUBO
PEER = tested on: PEER
RCH-ACV = tested on: RCH-ACV
REH = tested on: REH
RPMI-8402 = tested on: RPMI-8402
SEM cells = tested on: SEM cells
TANOUE = tested on: TANOUE
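Note: ALL cell lines in 384-well plates, five doses spanning 10,000-fold, each plate scaled between vehicle and 100 µmol/L benzalkonium chloride controls, sDSS an adapted area-under-curve metric.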

Compound | selective drug sensitivity score (ALL-PO) | selective drug sensitivity score (CCRF-HSB2) | selective drug sensitivity score (COG-LL-319h) | selective drug sensitivity score (COG-LL-332h) | selective drug sensitivity score (COG-LL-355h) | selective drug sensitivity score (DND-41) | selective drug sensitivity score (HAL-01) | selective drug sensitivity score (KARPAS-45) | selective drug sensitivity score (MHH-CALL-2) | selective drug sensitivity score (MN-60) | selective drug sensitivity score (MOLT-14) | selective drug sensitivity score (MOLT-16) | selective drug sensitivity score (P12-ICHIKAWA) | selective drug sensitivity score (P30-OHKUBO) | selective drug sensitivity score (PEER) | selective drug sensitivity score (RCH-ACV) | selective drug sensitivity score (REH) | selective drug sensitivity score (RPMI-8402) | selective drug sensitivity score (SEM cells) | selective drug sensitivity score (TANOUE)
Cc1cnc(NC(=O)Nc2cc(Br)c(C)cc2OC[C@@H]2CNCCO2)cn1 [Rabusertib] (top concentration 1000 nM) | 0.46 | -0.74 | 4.26 | -0.74 | 1.96 | 6.16 | 3.06 | 0.36 | 0.66 | 3.56 | 0.16 | -0.14 | -0.74 | -0.74 | -0.74 | 2.06 | 0.06 | 0.46 | 1.26 | 0.46
CCCN(CCC)C(=O)C1=Cc2ccc(-c3ccc(C(=O)N4CCCC4)cc3)cc2N=C(N)C1 [Motolimod] (top concentration 10000 nM) | -3.88 | -3.48 | -4.18 | -3.18 | -2.38 | -4.08 | -4.18 | -3.48 | -3.98 | -4.48 | -4.28 | -2.78 | -3.18 | -1.58 | -3.18 | -1.68 | -2.48 | -2.28 | -3.38 | -4.48
CCCOc1ccn2c(C(C)=O)cc(-c3ccccc3S(C)(=O)=O)c2c1 [GSK2801] (top concentration 10000 nM) | 0.04 | -0.36 | 4.44 | 2.04 | -0.36 | -0.26 | -0.36 | 0.44 | -0.16 | -0.36 | 2.64 | -0.16 | -0.16 | -0.36 | 0.34 | 3.24 | -0.36 | -0.16 | -0.36 | -0.36
Cc1cc(C)c(CNC(=O)c2cc(-c3ccc(CN4CCOCC4)cc3)cc3c2cnn3C2CCCC2)c(=O)[nH]1 [EPZ-5687] (top concentration 10000 nM) | 0.24 | -0.06 | -0.36 | -0.36 | -0.36 | -0.36 | 3.24 | -0.26 | 5.14 | -0.36 | -0.36 | -0.36 | -0.36 | 2.24 | -0.36 | -0.36 | 6.64 | -0.16 | -0.36 | -0.36
C/C(=C\c1csc(C)n1)[C@@H]1C[C@@H]2O[C@]2(C)CCC[C@H](C)[C@H](O)[C@@H](C)C(=O)C(C)(C)[C@@H](O)CC(=O)N1 [Ixabepilone] (top concentration 1000 nM) | 2.28 | 3.18 | 3.68 | 4.08 | 2.48 | 1.28 | 1.78 | 3.68 | 1.88 | 1.48 | 4.58 | 4.68 | 2.58 | 3.78 | 3.28 | 6.78 | 3.78 | 2.78 | 3.58 | -1.92
CN(CC(=O)N(Cc1ccc(C2CCCCC2)cc1)c1ccc(C(=O)O)cc1)S(=O)(=O)c1c(F)c(F)c(F)c(F)c1F [SH-4-54] (top concentration 25000 nM) | -6.04 | -5.04 | -3.04 | -0.04 | -0.54 | -2.74 | -6.34 | -4.24 | -7.24 | -6.54 | -4.34 | -6.74 | -6.04 | -5.24 | -4.54 | -2.24 | -5.04 | -5.74 | -6.14 | -4.04
Nc1cc(COc2c(Cl)cc(C[C@H](N)C(=O)O)cc2Cl)c2oc(-c3ccccc3)nc2c1 [JPH203] (top concentration 5000 nM) | 0 | 0 | 0 | 0 | 1.5 | 0 | 0.4 | 0 | 0 | 0 | 0 | 0 | 0 | 2.2 | 0 | 4.5 | 0.2 | 0.5 | 0 | 0
CCN(CC)CCN(Cc1ccc(-c2ccc(C(F)(F)F)cc2)cc1)C(=O)Cn1c(SCc2ccc(F)cc2)nc(=O)c2c1CCC2 [Darapladib] (top concentration 1000 nM) | -1.42 | -0.52 | -1.42 | -0.92 | -1.42 | -0.72 | 0.58 | -1.32 | 3.68 | -1.42 | -1.42 | 3.28 | -1.42 | 0.68 | -1.42 | 7.28 | -1.42 | -1.32 | -1.42 | -1.42
Cn1cc(C[C@@H](N)C(=O)O)c2ccccc21 [1-methyl-D-tryptophan] (top concentration 5000 nM) | -0.62 | -0.62 | -0.62 | -0.62 | -0.62 | -0.62 | 0.58 | -0.62 | 2.28 | -0.62 | -0.62 | -0.62 | -0.62 | 0.58 | -0.62 | -0.62 | 3.68 | -0.62 | -0.32 | -0.62
CCc1cc2c(cc1N1CCC(N3CCOCC3)CC1)C(C)(C)c1[nH]c3cc(C#N)ccc3c1C2=O [Alectinib] (top concentration 1000 nM) | 7.28 | -0.22 | 2.48 | 0.18 | -0.02 | 0.08 | 1.28 | 1.28 | -0.12 | 0.98 | 1.08 | -0.22 | -0.22 | 1.68 | 0.78 | 4.98 | -0.02 | 2.08 | 0.58 | -0.22
C=CC(=O)N1CCC(Oc2cc3c(Nc4ccc(Cl)c(Cl)c4F)ncnc3cc2OC)CC1 [Poziotinib] (top concentration 1000 nM) | -0.22 | 3.68 | 3.98 | 1.48 | -0.22 | 2.08 | 1.18 | -0.22 | -0.22 | -0.22 | 0.78 | -0.22 | -0.22 | -0.22 | -0.22 | 4.98 | -0.22 | -0.22 | 3.88 | -0.22
COc1cc(C)[nH]c(=O)c1CNC(=O)c1c(C)n([C@H](C)C2CCOCC2)c2ccccc12 [CPI-360] (top concentration 10000 nM) | 0 | 0 | 0 | 0 | 0 | 0 | 1.3 | 0 | 1.1 | 0 | 0 | 0 | 0 | 1.8 | 0 | 0 | 0 | 0 | 0 | 0
Cn1nnc2c(C(N)=O)ncn2c1=O [Temozolomide] (top concentration 100000 nM) | -0.04 | 2.06 | -0.04 | -0.04 | -0.04 | -0.04 | -0.04 | 5.76 | 3.36 | -0.04 | 3.36 | 5.16 | 4.96 | 3.36 | -0.04 | 6.66 | 6.66 | 1.46 | 6.46 | -0.04
NC(=O)c1cccc(-c2cccc(OC(=O)NC3CCCCC3)c2)c1 [URB597] (top concentration 1000 nM) | -0.46 | -0.46 | 5.14 | -0.46 | -0.06 | -0.26 | 0.64 | -0.46 | 0.54 | -0.46 | -0.46 | 2.34 | -0.46 | -0.46 | -0.46 | -0.46 | -0.46 | -0.46 | -0.46 | 2.84
CCN(CC)CCCC(C)Nc1ccnc2cc(Cl)ccc12 (stereo not given) [Chloroquine] (top concentration 100000 nM) | -1.64 | -2.34 | -5.84 | -0.64 | -0.34 | -0.94 | 0.36 | 1.26 | 1.06 | -2.74 | -2.84 | -3.14 | -3.94 | 0.26 | -0.94 | -0.14 | 0.96 | -1.74 | -0.74 | -6.04
C=CCc1cccc(/C=N/NC(=O)CN2CCN(Cc3ccccc3)CC2)c1O [PAC-1] (top concentration 10000 nM) | 0.98 | 1.78 | 1.18 | 7.08 | 2.08 | 4.78 | 3.38 | 3.28 | 5.58 | 4.08 | 8.28 | 2.68 | 1.68 | 1.18 | 2.58 | 1.18 | 3.48 | 1.78 | 2.98 | 2.08
Cc1cc(F)c(C(=O)Nc2cccc(-c3nncn3C(C)C)n2)cc1-n1cnc(C2CC2)c1 [Selonsertib] (top concentration 1000 nM) | 0 | 0 | 0 | 0 | 0 | 0 | 6.6 | 0 | 11.5 | 0 | 0 | 0 | 0 | 0.9 | 0 | 0.5 | 0 | 0 | 0 | 0
COCCOc1cnc2ccn([C@H](C)c3nnc4c(F)cc(-c5cnn(C)c5)cn34)c(=O)c2c1 [AMG-337] (top concentration 10000 nM) | -0.06 | -0.06 | -0.06 | -0.06 | -0.06 | -0.06 | 5.24 | -0.06 | 7.54 | -0.06 | -0.06 | -0.06 | -0.06 | 0.84 | -0.06 | -0.06 | 1.24 | -0.06 | -0.06 | -0.06
